# Reference: patent publication US20230092890A1, “1, 3, 4-Oxadiazole derivative compounds as histone deacetylase 6 inhibitor, and the pharmaceutical composition comprising the same” (Chong Kun Dang Pharmaceutical Corp., priority 2019, published 2023)
# Tests used:
# HDAC6 human recombinant = molecular target: T1, HDAC6 human recombinant (Homo sapiens, UniProt Q9UBN7); assay: HDAC enzyme activity inhibition (in vitro), HDAC6 assay; type: biochemical; settings: samples at 0.1, 1, 10, 100 and 1000 nM; 37° C. 60 minutes; fluorescence Ex 390, Em 460; read-out: HDAC6 IC50
# T1 construct: purchased Calbiochem 382180
# T1 sequence (Q9UBN7 1-1215): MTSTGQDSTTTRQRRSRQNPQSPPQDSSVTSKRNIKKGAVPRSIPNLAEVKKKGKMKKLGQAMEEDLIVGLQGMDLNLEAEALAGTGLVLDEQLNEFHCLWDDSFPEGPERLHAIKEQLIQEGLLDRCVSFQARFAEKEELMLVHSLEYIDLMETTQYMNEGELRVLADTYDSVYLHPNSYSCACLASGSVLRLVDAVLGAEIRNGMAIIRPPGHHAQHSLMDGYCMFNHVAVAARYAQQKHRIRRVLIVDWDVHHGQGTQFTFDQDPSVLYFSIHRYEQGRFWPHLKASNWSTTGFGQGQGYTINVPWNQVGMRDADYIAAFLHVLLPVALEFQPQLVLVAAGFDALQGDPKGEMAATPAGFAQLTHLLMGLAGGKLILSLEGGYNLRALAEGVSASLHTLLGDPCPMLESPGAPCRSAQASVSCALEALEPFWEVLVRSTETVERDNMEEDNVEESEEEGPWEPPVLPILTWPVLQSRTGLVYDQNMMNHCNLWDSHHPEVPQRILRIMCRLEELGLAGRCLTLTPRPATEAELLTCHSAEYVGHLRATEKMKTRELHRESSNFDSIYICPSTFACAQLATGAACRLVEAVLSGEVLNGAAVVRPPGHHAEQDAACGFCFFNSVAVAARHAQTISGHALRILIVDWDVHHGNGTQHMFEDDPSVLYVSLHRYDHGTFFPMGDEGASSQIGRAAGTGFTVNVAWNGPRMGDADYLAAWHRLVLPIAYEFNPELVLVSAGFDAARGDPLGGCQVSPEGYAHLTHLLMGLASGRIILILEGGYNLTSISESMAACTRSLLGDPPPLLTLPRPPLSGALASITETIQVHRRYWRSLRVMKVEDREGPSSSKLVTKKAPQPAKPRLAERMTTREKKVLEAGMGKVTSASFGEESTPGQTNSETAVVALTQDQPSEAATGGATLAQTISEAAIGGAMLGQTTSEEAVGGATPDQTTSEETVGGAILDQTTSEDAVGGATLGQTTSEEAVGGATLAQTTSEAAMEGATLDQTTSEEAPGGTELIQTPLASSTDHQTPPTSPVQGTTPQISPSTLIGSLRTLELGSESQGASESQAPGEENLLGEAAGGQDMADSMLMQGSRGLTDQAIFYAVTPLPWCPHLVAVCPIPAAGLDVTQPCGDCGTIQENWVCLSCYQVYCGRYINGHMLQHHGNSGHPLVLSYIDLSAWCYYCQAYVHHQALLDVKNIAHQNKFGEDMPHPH
# How it was run: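 HDAC6 human recombinant enzyme with fluorimetric substrate; […]. Reaction 60 min at 37° C, then developer 30 min at 37° C; fluorescence read at Ex 390/Em 460.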
# HDAC1 = molecular target: T2, HDAC1 (Homo sapiens, UniProt Q13547); assay: HDAC enzyme activity inhibition (in vitro), HDAC1 Fluorimetric Drug Discovery Assay Kit; type: biochemical; settings: samples at 100, 1000 and 10000 nM; 37° C. 60 minutes; fluorescence Ex 390, Em 460; read-out: HDAC1 IC50
# T2 construct: purchased Enzolifesciences BML-AK511
# How it was run: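 Compounds at 100, 1000, 10000 nM (HDAC1) or 0.1, 1, 10, 100, 1000 nM (HDAC6); 37° C, 60 min; developer, 37° C, 30 min; fluorescence Ex 390/Em 460.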
# T2 sequence (Q13547 whole entry): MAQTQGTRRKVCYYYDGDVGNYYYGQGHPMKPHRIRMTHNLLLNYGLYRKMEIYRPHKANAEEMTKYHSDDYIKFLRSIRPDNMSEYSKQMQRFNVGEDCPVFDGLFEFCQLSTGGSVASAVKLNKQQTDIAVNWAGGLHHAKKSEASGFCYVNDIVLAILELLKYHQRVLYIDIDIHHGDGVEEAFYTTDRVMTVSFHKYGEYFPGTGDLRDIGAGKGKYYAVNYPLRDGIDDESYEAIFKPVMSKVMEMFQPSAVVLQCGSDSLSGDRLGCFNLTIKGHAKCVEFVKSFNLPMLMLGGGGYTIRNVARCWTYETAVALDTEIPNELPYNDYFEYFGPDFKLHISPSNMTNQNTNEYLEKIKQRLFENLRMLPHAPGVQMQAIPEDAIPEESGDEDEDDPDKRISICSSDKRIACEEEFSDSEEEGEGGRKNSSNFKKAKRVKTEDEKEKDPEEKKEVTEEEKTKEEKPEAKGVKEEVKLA
IC50 (HDAC6 human recombinant) [nM],IC50 (HDAC1) [nM],SMILES
75,> 10000,"O=c1oc2cc(-c3cnn(C4CCN(CC(F)(F)F)CC4)c3)c(F)cc2n1Cc1ccc(-c2nnc(C(F)F)o2)cn1 [Compound 363, 3-((5-(5-(difluoromethyl)-1,3,4-oxadiazole-2-yl)pyridine-2-yl)methyl)-5-fluoro-6-(1-(1-(2,2,2-trifluoroethyl)piperidine-4-yl)-1H-pyrazole-4-yl)benzo[d]oxazole-2(3H)-one]"
26,> 10000,"CN1CCN(c2cc(-c3cc4oc(=O)n(Cc5ccc(-c6nnc(C(F)F)o6)cn5)c4cc3F)ccn2)CC1 [Compound 364, 3-((5-(5-(difluoromethyl)-1,3,4-oxadiazole-2-yl)pyridine-2-yl)methyl)-5-fluoro-6-(2-(4-methylpiperazine-1-yl)pyridine-4-yl)benzo[d]oxazole-2(3H)-one]"
33,> 10000,"CC(C)N1CCN(c2cc(-c3cc4oc(=O)n(Cc5ccc(-c6nnc(C(F)F)o6)cn5)c4cc3F)ccn2)CC1 [Compound 365, 3-((5-(5-(difluoromethyl)-1,3,4-oxadiazole-2-yl)pyridine-2-yl)methyl)-5-fluoro-6-(2-(4-isopropylpiperazine-1-yl)pyridine-4-yl)benzo[d]oxazole-2(3H)-one]"
52,> 10000,"O=c1oc2cc(-c3ccnc(N4CCN(C5COC5)CC4)c3)c(F)cc2n1Cc1ccc(-c2nnc(C(F)F)o2)cn1 [Compound 366, 3-((5-(5-(difluoromethyl)-1,3,4-oxadiazole-2-yl)pyridine-2-yl)methyl)-5-fluoro-6-(2-(4-(oxetan-3-yl)piperazine-1-yl)pyridine-4-yl)benzo[d]oxazole-2(3H)-one]"
312,> 10000,"O=c1oc2cc(-c3ccnc(N4CCN(C5CCC5)CC4)c3)c(F)cc2n1Cc1ccc(-c2nnc(C(F)F)o2)cn1 [Compound 367, 6-(2-(4-cyclobutylpiperazine-1-yl)pyridine-4-yl)-3-((5-(5-(difluoromethyl)-1,3,4-oxadiazole-2-yl)pyridine-2-yl)methyl)-5-fluorobenzo[d]oxazole-2(3H)-one]"
18,> 10000,"O=c1oc2cc(-c3ccnc(N4CCNCC4)c3)c(F)cc2n1Cc1ccc(-c2nnc(C(F)F)o2)cn1 [Compound 368, 3-((5-(5-(difluoromethyl)-1,3,4-oxadiazole-2-yl)pyridine-2-yl)methyl)-5-fluoro-6-(2-(piperazine-1-yl)pyridine-4-yl)benzo[d]oxazole-2(3H)-one]"
